Measurements as given in patent US20140219995A1, “INHIBITORS OF BACTERIAL TYPE III SECRETION SYSTEM” (priority 2011, published 2014).
Like-named read-outs stand apart in the source and are kept apart here.

Assays:
[1] = Determination of mammalian cytotoxicity (MTS); assay type: cell-based; conditions: human
Protocol: Determination of Mammalian Cytotoxicity.
See, Marshall, et al., 1995, A critical assessment of the use of microculture tetrazolium assays to measure cell growth and function, Growth Regul., 5:69-84. Briefly, 96-well plates were seeded with HeLa cells at a density of 4×10^3 per well in VP-SFM medium without serum (Frazzati-Gallina, et al., 2001, J. Biotechnol., 92:67-72), in the presence or absence of serial dilutions of a compound dissolved in DMSO. Following incubation for 3 days at 37° C. in VP-SFM, cell viability was measured with the vital tetrazolium salt stain 3-(4,5-dimethylthiazol-2-yl)-2,5 diphenyltetrazolium bromide according to the manufacturer's instructions (Promega, Madison, Wis.). Values were determined in duplicate using dilutions of inhibitory compound from 100 μM to 0.2 μM.

[2] = system: T3SS-mediated secretion of ExoS′-βLA fusion protein, P. aeruginosa strain MDM973; assay: Effector-β-lactamase (ExoS′-βLA) secretion assay; assay type: cell-based, Pseudomonas aeruginosa; conditions: for IC50: Pseudomonas aeruginosa, read-out: Avg. Secretion IC50
Source text: Effector-β-Lactamase (βLA) Secretion Assays.
P. aeruginosa. A gene encoding an ExoS'-β-lactamase (βLA) fusion protein (comprised of 234 codons of P. aeruginosa effector ExoS fused to the TEM-1 β-lactamase gene lacking secretion signal codons) was constructed by splicing by overlap extension PCR (SOE-PCR) (Choi and Schweizer, 2005, BMC Microbiol., 5:30) using primers 5-10 (Table 3, above), sequence confirmed, cloned into lacI^Q-containing GATEWAY® vector pUCP24GW (see Moir, et al., 2007, J Biomol. Screen., 12:855-64) behind the lac promoter, and introduced into P. aeruginosa by electroporation (see Choi, et al., 2006, J. Microbiol. Methods, 64:391-7). Secretion of fusion proteins was detected by measuring the hydrolysis of the chromogenic β-lactamase substrate nitrocefin in clear 96-well microplates in a modification of a previously described assay (Lee, et al., 2007, Infect. Immun., 75:1089-98). Cells of strain MDM973 (PAK/pUCP24GW-exoS:blaM) were sub-cultured in the morning from overnight growths in LBG into 0.1 ml of LBGIE with or without test compounds and grown for 150 min. Nitrocefin (100 μg/ml final) was added, and A490 measurements taken every minute for 15 min in a Victor^3V 1420 Multilabel HTS Counter (PerkinElmer). Slopes were calculated as a relative measure of the quantity of the effector-βLA fusion protein secreted and were absolutely dependent on induction with IPTG, EGTA, and the presence of a functional pscC gene in the P. aeruginosa cells. Typical signal:background ratios were 6-10.

[3] = system: T3SS-mediated cytotoxicity of translocated effector protein ExoU in CHO cells; assay: Inhibition of P. aeruginosa ExoU-dependent CHO cell killing (translocation, LDH release); assay type: cell-based; conditions: Pseudomonas aeruginosa, read-out: Avg. Translocation IC50
Source text: Inhibition of P. aeruginosa ExoU-Dependent CHO Cell Killing.
Pseudolipasin, which acts by direct inhibition of the ExoU phospholipase, was used as control inhibitor (Lee, et al, 2007, Infect. Immun., 75:1089-98).

[4] = Table 4, HeLa cells, 3 days, dilutions from 100 μM to 0.2 μM, read-out: Avg. CC50

Row | SMILES | CC50 at 3 days [1, 4] | melting point | IC50 [2] | IC50 [3] | IC50 values lower (T3SS secretion inhibition) ([2]; vs. MBX-1641) | CC50 at 3 days [1] | effect of structural alteration on T3SS-mediated secretion inhibition ([2]; vs. MBX-1641)
1 | CC(Oc1ccc(Cl)cc1Cl)C(=O)NCc1ccc(F)cn1 (stereo not drawn) [MBX-2623] | 70 µM | 78 °C | 21 µM |  |  |  | 
2 | CC(Oc1ccc(Cl)cc1Cl)C(=O)NC(C)(C)c1ccc2c(c1)OCO2 (stereo not drawn) [MBX-2220] | 64 µM | 105 °C | 2.9 µM | 15 µM | 29% |  | 
3 | CC(Oc1ccc(Cl)cc1Cl)C(=O)NCc1ccc2occc2c1 (stereo not drawn) [MBX-2592] | 44 µM | 125 °C | 2.5 µM | > 100 µM |  |  | 
4 | CC(Oc1ccc(Cl)cc1Cl)C(=O)NCc1ccc(N(C)C)cc1 (stereo not drawn) [MBX-1961] | 86 µM | 127 °C | 33 µM | 3.4 µM |  |  | 
5 | C[C@@H](Oc1ccc(Cl)cc1Cl)C(=O)N[C@H](C)c1ccc(F)cc1 [MBX-2572] | > 100 µM |  |  | > 100 µM |  |  | 
6 | CC(Oc1ccc(Cl)cc1Cl)C(=O)NC1COc2cc(F)ccc21 (stereo not drawn) [MBX-2589] | 36 µM | 134 °C | 25 µM | > 100 µM |  |  | 
7 | Cc1c(-c2ccccc2)[nH]c2ccc(CNC(=O)C(C)Oc3ccc(Cl)cc3Cl)cc12 (stereo not drawn) [MBX-2600] |  | 68 °C | 9 µM | 83 µM |  | 24 µM | 
8 | CC(Oc1ccc(Cl)cc1Cl)C(=O)NCc1cccc(Cl)c1 (stereo not drawn) [MBX-1957] | 72 µM | 140 °C |  | 5.4 µM |  |  | 
9 | CC(Oc1ccc(Cl)cc1Cl)C(=O)NCCc1ccc(F)cc1 (stereo not drawn) [MBX-2588] | 25 µM | 129 °C | 5.5 µM | 68 µM |  |  | 
10 | CC(Oc1ccc(Cl)cc1Cl)C(=O)NCc1ccc2c(c1)CCCO2 (stereo not drawn) [MBX-1997] | > 100 µM | 106 °C | 7.3 µM | 9.2 µM |  |  | 
11 | C[C@H](NC(=O)[C@@H](C)Oc1ccc(Cl)cc1Cl)c1ccc(F)cc1 [MBX-2573] | > 100 µM |  |  | > 100 µM |  |  | 
12 | CC(Oc1ccc(Cl)cc1Cl)C(=O)NCc1ccc(F)cc1 (stereo not drawn) [MBX-1642] | 41 µM |  | 8 µM | 15 µM |  |  | 
13 | CC(Oc1ccc(Cl)cc1Cl)C(=O)NC1(c2ccc(F)cc2)CC1 (stereo not drawn) [MBX-2666] | 100 µM | 134 °C | 5.3 µM |  |  |  | 
14 | CC(Oc1ccc(Cl)cc1Cl)C(=O)NC(C)(C)c1ccc(F)cc1 (stereo not drawn) [MBX-2616] | 16 µM | 105 °C | 8 µM |  |  |  | 
15 | CC(Oc1ccc(Cl)cc1Cl)C(=O)NC1CCc2cc(F)ccc21 (stereo not drawn) [MBX-2595] | 35 µM | 135 °C | 16 µM | > 100 µM |  |  | 
16 | Cc1cccc(CNC(=O)C(C)Oc2ccc(Cl)cc2Cl)c1 (stereo not drawn) [MBX-1952] | 32 µM | 113 °C |  | 8 µM |  |  | 
17 | CC(Oc1ccc(Cl)cc1Cl)C(=O)NC(C)c1ccc(F)cc1 (stereo not drawn) [MBX-2221] | 32 µM |  | 4.6 µM |  | 34% |  | 
18 | CC(Oc1ncc(Cl)cc1Cl)C(=O)NCc1ccc(F)cc1 (stereo not drawn) [MBX-2158] | > 100 µM | 129 °C | 6.8 µM | 26.4 µM |  |  | 
19 | CCC(NC(=O)C(C)Oc1ccc(Cl)cc1Cl)c1ccc(F)cc1 (stereo not drawn) [MBX-2608] | 11 µM | 95 °C |  |  |  |  | 
20 | CC(Oc1ccc(Cl)cc1Cl)C(=O)NCc1ccccc1 (stereo not drawn) [MBX-1939] | 54 µM | 121 °C |  | 7.5 µM |  |  | 
21 | CC(Oc1ccc(Cl)cc1Cl)C(=O)NCc1cccc(F)c1 (stereo not drawn) [MBX-1963] | 59 µM | 106 °C |  | 4.9 µM |  |  | 

Row | SMILES | CC50 at 3 days [1, 4] | melting point | IC50 [2] | IC50 [3] | IC50 values lower (T3SS secretion inhibition) ([2]; vs. MBX-1641) | CC50 at 3 days [1] | effect of structural alteration on T3SS-mediated secretion inhibition ([2]; vs. MBX-1641)
22 | CC(Oc1ccc(Cl)cc1Cl)C(=O)NC(c1ccc(F)cc1)C1CCC1 (stereo not drawn) [MBX-2615] | 26 µM | 103 °C | 2.2 µM |  |  |  | 
23 | CCCCC(NC(=O)C(C)Oc1ccc(Cl)cc1Cl)c1ccc(F)cc1 (stereo not drawn) [MBX-2629] | 19 µM | 100 °C | 4.7 µM |  |  |  | 
24 | CCCC(NC(=O)C(C)Oc1ccc(Cl)cc1Cl)c1ccc(F)cc1 (stereo not drawn) [MBX-2628] | 14 µM | 79 °C | 4.3 µM |  |  |  | 
25 | CC(Oc1ncc(Cl)cc1Cl)C(=O)NCc1ccc2c(c1)OCO2 (stereo not drawn) [MBX-2155] | > 100 µM | 180 °C |  |  |  |  | 
26 | COc1ccc(CNC(=O)C(C)Sc2ccc(Cl)cc2Cl)cc1 (stereo not drawn) [MBX-2163] |  | 89 °C | 8.3 µM | 12.2 µM |  | > 100 µM | 
27 | CC(Nc1ccc(Cl)cc1Cl)C(=O)NCc1ccc2c(c1)OCO2 (stereo not drawn) [MBX-2212] |  |  | 9.6 µM | 35.3 µM |  | 80 µM | adverse effect
28 | CC(Oc1ccc(Cl)cc1Cl)C(=O)NCc1cc2ccccc2[nH]1 (stereo not drawn) [MBX-2624] | 9 µM |  |  | 16 µM |  |  | 
29 | CC(Oc1ccc(Cl)cc1Cl)C(=O)NC(C#N)c1ccc(F)cc1 (stereo not drawn) [MBX-2627] | 26 µM | 112 °C | 5.9 µM | 11 µM |  |  | 
30 | CC(Oc1ccc(Cl)cc1Cl)C(=O)NCc1ccc2[nH]c(CCO)cc2c1 (stereo not drawn) [MBX-2626] |  | 157 °C | 5.4 µM | 9.2 µM |  | > 100 µM | 
31 | COc1cccc(OC)c1CNC(=O)C(C)Oc1ccc(Cl)cc1Cl (stereo not drawn) [MBX-1950] | 22 µM | 122 °C | 53.3 µM | 5 µM |  |  | 
32 | CC(Oc1ccc(Cl)cc1Cl)C(=O)NCCc1c[nH]c2cc(F)ccc12 (stereo not drawn) [MBX-2613] |  | 114 °C | 12 µM | 10 µM |  | 7 µM | 
33 | CC(Oc1ccc(Cl)cc1Cl)C(=O)NCc1ccc(Cl)cc1 (stereo not drawn) [MBX-1958] | 42 µM | 115 °C |  | 9.6 µM |  |  | 
34 | CC(Oc1ccc(Cl)cc1Cl)C(=O)NC(c1ccc(F)cc1)C1CC1 (stereo not drawn) [MBX-2614] | 12.8 µM | 109 °C | 1.5 µM | 8.4 µM |  |  | 
35 | CC(Oc1ccc(Cl)cc1Cl)C(=O)NCc1ccc2c(ccn2C)c1 (stereo not drawn) [MBX-2591] | 38 µM | 146 °C | 4.1 µM | > 100 µM |  |  | 
36 | CC(Oc1ccc(Cl)cc1Cl)C(=O)NCc1ccc2[nH]cnc2c1 (stereo not drawn) [MBX-2593] |  | 71 °C | 7 µM | 33 µM |  | > 100 µM | 
37 | CC(Oc1ccc(Cl)cc1Cl)C(=O)NCc1ccc2cc[nH]c2c1 (stereo not drawn) [MBX-2594] | 10.4 µM | 120 °C | 1.6 µM | 5.3 µM |  |  | 
38 | CC(Oc1ccc(Cl)cc1Cl)C(=O)NCc1ccc2[nH]ccc2c1 (stereo not drawn) [MBX-2590] |  | 91 °C | 1.7 µM |  |  | 25 µM | 
39 | CC(Oc1ccc(Cl)cc1Cl)C(=O)NCc1ccccc1F (stereo not drawn) [MBX-1962] | 32 µM | 121 °C |  | 8.2 µM |  |  | 
40 | CC(Oc1ccc(Cl)cc1Cl)C(=O)NC1CCCc2cc(F)ccc21 (stereo not drawn) [MBX-2601] |  | 82 °C | 35 µM |  |  | 40 µM | 
41 | CC(Oc1ccc(Cl)cc1Cl)C(=O)NC(c1ccc(F)cc1)C(C)C (stereo not drawn) [MBX-2617] | 9 µM | 107 °C | 2.1 µM |  |  |  | 
